Measurements reported in PubChem BioAssay AID588568 (The Scripps Research Institute Molecular Screening Center, 2011).
Activity calls are given as the source filed them. The rule behind the calls is not given here.

The compounds below were run against Melanin-concentrating hormone receptor 1 (Homo sapiens) (UniProt Q99705) (assay: antagonist activity at MCH receptor 1 – cell-based, fluorescence, set 4, counter-screen for GPR7 antagonist project, dose response (AID 588568)). Conditions: MCHR1-expressing cells, fluorescence antagonist assay; run 1.
`COc1ccc(Oc2c(Cl)cnn(Cc3cc(Cl)ccc3Cl)c2=O)cc1` gave an IC50 of 4.29 µM.
`COc1ccc(Oc2c(Cl)cnn(CC3CCCC3)c2=O)cc1` was tested, and the IC50 was “inactive”.
`CCCC(=O)OCC(c1cccc2ccccc12)n1ncc(Cl)c(Oc2ccc(OC)cc2)c1=O` (configuration not stated) was tested, and the IC50 was > 20 µM (inactive).
`COc1ccc(Oc2c(Cl)cnn(-c3ccc(C)c(C)c3)c2=O)cc1` showed an IC50 of 9.47 µM.
For `O=C(O)c1ccc(Oc2c(Cl)cnn(Cc3cccc4ccccc34)c2=O)cc1`, the IC50 was > 20 µM (inactive).
`COc1ccc(Oc2c(Cl)cnn(Cc3cccc(C)c3)c2=O)cc1` was tested, and the IC50 was 4.7 µM.
For `COc1ccc(Oc2c(Cl)cnn(Cc3ccc(Cl)c(C)c3)c2=O)cc1`, the IC50 was “inactive”.
`COc1ccc(Oc2c(Cl)cnn(Cc3c(OC)ccc4ccccc34)c2=O)cc1` was tested, and the IC50 was 6.18 µM.
For `O=c1c(Oc2ccc(CO)cc2)c(Cl)cnn1Cc1ccc2ccccc2c1`, the IC50 was 2.23 µM.
Compound `COc1ccc(Oc2c(Cl)cnn(Cc3c(Cl)cccc3Cl)c2=O)cc1` has an IC50 of 7.65 µM.
`COc1ccc(Oc2c(Cl)cnn(-c3ccccc3)c2=O)cc1` was tested, and the IC50 was “inactive”.
For `COc1ccc(Oc2c(Cl)c(-c3ccc(OC)cc3)nn(Cc3ccccc3C)c2=O)cc1`, the IC50 was > 20 µM (inactive).
`O=c1c(Oc2ccc(CO)cc2)c(Cl)cnn1Cc1cccc2ccccc12` gave an IC50 of 6.75 µM.
For `COc1ccc(Oc2c(Cl)cnn(Cc3ccc(Br)c4ccccc34)c2=O)cc1`, the IC50 was > 20 µM (inactive).
In the case of `COc1ccc(Oc2c(Cl)c(Br)nn(Cc3ccccc3C)c2=O)cc1`, the IC50 is reported as 1.79 µM.
Work on `C=Cc1cnn(Cc2cccc3ccccc23)c(=O)c1Oc1ccc(OC)cc1` yielded an IC50 of 1.69 µM.
`O=Cc1ccc(Oc2c(Cl)cnn(Cc3cccc4ccccc34)c2=O)cc1` was tested, and the IC50 was 7.33 µM.
With `Cc1ccc(-n2ncc(Cl)c(Oc3ccc(O)cc3)c2=O)cc1` the IC50 was > 20 µM (inactive).
`COc1ccc(Cn2ncc(Cl)c(Oc3ccc(OC)cc3)c2=O)cc1` was tested, and the IC50 was “inactive”.
In the case of `COc1ccc(Oc2c(Cl)cnn(Cc3ccc(OC(C)C)c(C#N)c3)c2=O)cc1`, the IC50 is reported as 5.54 µM.
With `COc1ccc(Oc2c(Cl)c(C3=CCCCC3)nn(Cc3ccccc3C)c2=O)cc1` the IC50 was 3.57 µM.
With `Cc1cc(C)cc(-n2ncc(Cl)c(Oc3ccc(Oc4ccccc4)cc3)c2=O)c1` the IC50 was 2.24 µM.
With `COc1ccc(Oc2c(-c3ccc(C)cc3)c(-c3ccc(C)cc3)nn(Cc3ccccc3C)c2=O)cc1` the IC50 was > 20 µM (inactive).
In the case of `Cc1cc(CN2CCCCC2C(=O)N2CCN(c3ccc([N+](=O)[O-])cc3)CC2)ccc1Cl` (configuration not stated), the IC50 is reported as 1.42 µM.
`COc1ccc(Oc2c(Cl)c(C)nn(Cc3ccccc3C)c2=O)cc1` gave an IC50 of 3.89 µM.
For `O=c1c(Oc2ccc(OC(F)(F)F)cc2)c(Cl)cnn1C1c2ccccc2-c2ccccc21`, the IC50 was > 20 µM (inactive).
`COc1ccccc1CNC(=O)c1cnn(-c2ccc(Cl)cc2)c1C(F)(F)F` was tested, and the IC50 was 7.23 µM.
With `COCc1ccc(Oc2c(Cl)cnn(Cc3cccc4ccccc34)c2=O)cc1` the IC50 was > 20 µM (inactive).
`COC(=O)c1ccc(Oc2c(Cl)cnn(Cc3cccc4ccccc34)c2=O)cc1` was tested, and the IC50 was > 20 µM (inactive).
`CCN(CC)C(=O)C(c1ccccc1Cl)n1ncc(Cl)c(Oc2ccc(OC)cc2)c1=O` (configuration not stated) was tested, and the IC50 was > 11.5 µM (inactive).
In the case of `C=Cc1ccc(Cn2ncc(Cl)c(Oc3ccc(OC)cc3)c2=O)cc1`, the IC50 is reported as 9.05 µM.
`Cc1ccccc1Cn1ncc(Cl)c(Oc2ccc(CO)cc2)c1=O` showed an IC50 of 4.92 µM.
With `COc1ccc(Oc2c(Cl)cnn(CC(=O)c3ccc(C)cc3C)c2=O)cc1` the IC50 was 2.64 µM.
`COCn1ncc(Cl)c(Oc2ccc(OC)cc2)c1=O` was tested, and the IC50 was > 20 µM (inactive).
Compound `COc1ccc(Oc2c(Cl)c(-c3ccsc3)nn(Cc3ccccc3C)c2=O)cc1` has an IC50 of 8.04 µM.
Work on `COc1ccc(Oc2c(Cl)c(-c3ccc(C)cc3)nn(Cc3ccccc3C)c2=O)cc1` yielded an IC50 of 6.43 µM.
In the case of `COc1ccc(Oc2c(Cl)cnn(Cc3ccc4c(c3)OCO4)c2=O)cc1`, the IC50 is reported as 7.57 µM.
With `COc1ccc(Oc2c(Cl)cnn(-c3ccc(C(F)(F)F)cc3)c2=O)cc1` the IC50 was 9.6 µM.
For `CN(C)Cc1ccc(Oc2c(Cl)cnn(Cc3cccc4ccccc34)c2=O)cc1`, the IC50 was > 20 µM (inactive).
`CCc1ccc(Oc2c(Cl)cnn(C3c4ccccc4-c4ccccc43)c2=O)cc1` was tested, and the IC50 was > 20 µM (inactive).
`COc1ccc(Oc2c(Cl)cnn(C(CCl)c3cccc4ccccc34)c2=O)cc1` (configuration not stated) was tested, and the IC50 was > 20 µM (inactive).
With `CCCCCCCn1ncc(Cl)c(Oc2ccc(OC)cc2)c1=O` the IC50 was “inactive”.
In the case of `COc1ccc(Oc2c(/C=N\O)cnn(Cc3cccc4ccccc34)c2=O)cc1`, the IC50 is reported as “inactive”.
For `COc1ccc(Oc2c(Br)nn(-c3cccc(C)c3)c(=O)c2Oc2ccc(OC)cc2)cc1`, the IC50 was 1.66 µM.
In the case of `COc1ccc(Oc2c(Cl)cnn(C(c3ccccc3)c3cccc4ccccc34)c2=O)cc1` (configuration not stated), the IC50 is reported as > 20 µM (inactive).
`COc1ccc(Oc2c(Cl)cnn(Cc3ccc(Cl)cc3Cl)c2=O)cc1` showed an IC50 of 1.45 µM.
`COc1ccc(Oc2c(Cl)c(-c3ccccc3C)nn(Cc3ccccc3C)c2=O)cc1` gave an IC50 of 1.79 µM.
In the case of `COc1ccc(Oc2c(Cl)cnn(Cc3ccc(C(C)C)cc3)c2=O)cc1`, the IC50 is reported as > 20 µM (inactive).
Compound `COc1cccc(Oc2c(Cl)cnn(Cc3cccc4ccccc34)c2=O)c1` has an IC50 of 8.9 µM.

Same assay, conditions: MCHR1-expressing cells, fluorescence antagonist assay; run 1; at 20 µM (top of the series)
`CCOc1ccc(Oc2c(N3CCCCC3)cnn(Cc3cccc4ccccc34)c2=O)cc1` was tested, and the inhibition was “inactive”.

Same assay, conditions: MCHR1-expressing cells, fluorescence antagonist assay; run 2
`COc1ccc(Oc2c(Cl)cnn(-c3ccc(C)c(C)c3)c2=O)cc1` was tested, and the IC50 was 3.99 µM.
For `COc1ccc(Oc2c(Cl)cnn(-c3ccc(C(F)(F)F)cc3)c2=O)cc1`, the IC50 was 9.81 µM.
